Results from patent US10519113B2, “Kinase inhibitor compounds, compositions, and methods of treating cancer” (ICAHN SCHOOL OF MEDICINE AT MOUNT SINAI, priority 2016, dated 2019).
“Also recorded” adds a separate entry of the source.

Assays:
ptc>dRet^M955T flies [1] = assay: rescue-from-lethality assay in ptc>dRet^M955T flies (drug screening); assay type: in vivo, Drosophila; settings: drug in fly food, 25° C.
non-oncogenic w^- flies = assay: whole-body toxicity in control, non-transformed flies; assay type: in vivo, Drosophila; settings: fed to control
[2] = test system: dRet^M955T-expressing wing cells; assay: in vivo cell migration assay in developing wing discs; settings: for ptc>dRet^M955T-mediated EMT and cell migration/invasion: wing discs of ptc>dRet^M955T larvae; for effect of reduced Lk6 on suppression of cell migration by compound: 765>dRet^M955T
Source text: For in vivo cell migration assays, third-instar larvae were dissected to collect developing wing discs. After fixation with 4% paraformaldehyde in PBS, discs were whole-mounted and observed for dRet^M955T-expressing cells labeled with GFP under a confocal microscope. At least 20 wing discs were studied for each genotype or treatment. Phospho-Src was stained with anti-Src(pY418) antibody (Invitrogen).
In addition to directing late lethality, the ptc>dRet^M955T transgenes targeted dRet^M955T expression to a stripe of cells at the midline of the developing wing disc epithelium; cells were visualized with an included UAS-GFP transgene.

ptc>dRet^M955T flies [3] = assay: fly rough eye phenotype; settings: APS6-45 100 μM, AD80 100 μM
human BRAF = biological target: T1, human BRAF (Homo sapiens, UniProt P15056); assay: Kd measurement (KINOMEscan bead based competition assay), BRAF; settings: in vitro binding assay
T1 construct: phage display fusion (kinase expressed on phage); purchased DiscoverX (KINOMEscan service); host or cells: phage
T1 sequence (P15056 whole entry, the tested form may be a part): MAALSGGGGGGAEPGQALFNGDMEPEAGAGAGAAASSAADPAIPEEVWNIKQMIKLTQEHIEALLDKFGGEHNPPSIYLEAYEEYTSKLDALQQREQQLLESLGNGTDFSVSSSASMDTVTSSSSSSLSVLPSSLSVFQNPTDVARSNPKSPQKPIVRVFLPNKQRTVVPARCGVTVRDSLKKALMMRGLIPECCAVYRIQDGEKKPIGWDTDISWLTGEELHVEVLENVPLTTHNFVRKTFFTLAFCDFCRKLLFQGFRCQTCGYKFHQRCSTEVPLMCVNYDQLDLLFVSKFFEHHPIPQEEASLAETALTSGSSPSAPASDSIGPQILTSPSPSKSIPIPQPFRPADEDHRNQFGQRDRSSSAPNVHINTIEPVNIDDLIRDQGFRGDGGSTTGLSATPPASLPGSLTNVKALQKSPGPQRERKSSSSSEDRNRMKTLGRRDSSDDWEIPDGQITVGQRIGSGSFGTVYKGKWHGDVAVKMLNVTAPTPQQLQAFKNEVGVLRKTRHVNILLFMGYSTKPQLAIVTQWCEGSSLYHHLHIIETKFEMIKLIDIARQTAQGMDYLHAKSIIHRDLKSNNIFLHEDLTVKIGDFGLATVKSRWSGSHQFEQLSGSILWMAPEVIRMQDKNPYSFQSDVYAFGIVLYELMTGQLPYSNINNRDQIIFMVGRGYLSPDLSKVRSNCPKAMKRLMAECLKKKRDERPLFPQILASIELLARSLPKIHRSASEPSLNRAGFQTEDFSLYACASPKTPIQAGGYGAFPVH
Procedure: Kd values were determined by DiscoverX using a bead based competition assay (KINOMEscan). In brief, kinases were expressed on phage and immobilized on beads via active site-directed ligands. Test compounds were premixed with kinases and assayed for the ability to compete for immobilized ligands. Binding constants were calculated with a standard dose-response curve and the Hill equation, with Hill slope set to −1. […] Kd values and s.e.m. are the average of two biological replicates.

human RET = biological target: T2, human RET (Homo sapiens, UniProt P07949); assay: Kd measurement (KINOMEscan bead based competition assay), RET; assay type: binding; settings: cell-free in vitro
T2 construct: phage display fusion (kinase expressed on phage); purchased DiscoverX (KINOMEscan service); host or cells: phage
T2 sequence (P07949 29-1114): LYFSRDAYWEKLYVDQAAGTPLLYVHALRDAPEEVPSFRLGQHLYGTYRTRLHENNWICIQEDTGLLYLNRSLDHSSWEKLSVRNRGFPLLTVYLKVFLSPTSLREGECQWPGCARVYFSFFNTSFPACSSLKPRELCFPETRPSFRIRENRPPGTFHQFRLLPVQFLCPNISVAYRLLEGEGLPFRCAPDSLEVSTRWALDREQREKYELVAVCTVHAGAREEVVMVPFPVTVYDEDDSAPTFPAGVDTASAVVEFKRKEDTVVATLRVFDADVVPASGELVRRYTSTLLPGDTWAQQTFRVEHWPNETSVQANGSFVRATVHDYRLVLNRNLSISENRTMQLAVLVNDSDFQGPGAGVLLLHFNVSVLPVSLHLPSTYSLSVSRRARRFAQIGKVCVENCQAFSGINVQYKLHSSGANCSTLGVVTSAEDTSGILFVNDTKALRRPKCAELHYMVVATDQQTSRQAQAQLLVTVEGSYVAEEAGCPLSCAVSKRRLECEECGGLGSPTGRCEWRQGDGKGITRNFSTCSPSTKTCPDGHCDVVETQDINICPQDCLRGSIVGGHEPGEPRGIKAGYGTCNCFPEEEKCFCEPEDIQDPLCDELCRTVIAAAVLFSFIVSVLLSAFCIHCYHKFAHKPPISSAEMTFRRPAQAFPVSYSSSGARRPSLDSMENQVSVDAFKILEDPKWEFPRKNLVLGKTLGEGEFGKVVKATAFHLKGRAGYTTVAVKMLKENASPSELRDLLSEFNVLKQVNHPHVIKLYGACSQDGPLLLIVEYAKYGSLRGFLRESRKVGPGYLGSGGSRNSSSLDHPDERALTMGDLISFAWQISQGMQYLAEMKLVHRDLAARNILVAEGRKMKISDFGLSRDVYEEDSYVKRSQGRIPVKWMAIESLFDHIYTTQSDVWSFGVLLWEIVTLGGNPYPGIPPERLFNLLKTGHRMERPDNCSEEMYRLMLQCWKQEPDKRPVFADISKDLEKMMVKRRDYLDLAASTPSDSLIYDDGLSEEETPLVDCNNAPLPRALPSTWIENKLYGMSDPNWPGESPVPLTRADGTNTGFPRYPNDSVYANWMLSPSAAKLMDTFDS
Procedure: (§1) Kd values were determined by DiscoverX using a bead based competition assay (KINOMEscan). In brief, kinases were expressed on phage and immobilized on beads via active site-directed ligands. Test compounds were premixed with kinases and assayed for the ability to compete for immobilized ligands. Binding constants were calculated with a standard dose-response curve and the Hill equation, with Hill slope set to −1. […] For each sorafelog-kinase pair, an 11-point series ranging from 30,000 to 0.5 nM, in 3-fold dilutions, were used to derive Kd values. Kd values and s.e.m. are the average of two biological replicates.

MKNK1 = biological target: T3, MKNK1 (Homo sapiens, UniProt Q9BUB5); assay: Kd measurement (KINOMEscan bead based competition assay), MKNK1; assay type: binding; settings: in vitro
T3 construct: phage display fusion (kinase expressed on phage); purchased DiscoverX (KINOMEscan service); host or cells: phage
T3 sequence (Q9BUB5 whole entry, the tested form may be a part): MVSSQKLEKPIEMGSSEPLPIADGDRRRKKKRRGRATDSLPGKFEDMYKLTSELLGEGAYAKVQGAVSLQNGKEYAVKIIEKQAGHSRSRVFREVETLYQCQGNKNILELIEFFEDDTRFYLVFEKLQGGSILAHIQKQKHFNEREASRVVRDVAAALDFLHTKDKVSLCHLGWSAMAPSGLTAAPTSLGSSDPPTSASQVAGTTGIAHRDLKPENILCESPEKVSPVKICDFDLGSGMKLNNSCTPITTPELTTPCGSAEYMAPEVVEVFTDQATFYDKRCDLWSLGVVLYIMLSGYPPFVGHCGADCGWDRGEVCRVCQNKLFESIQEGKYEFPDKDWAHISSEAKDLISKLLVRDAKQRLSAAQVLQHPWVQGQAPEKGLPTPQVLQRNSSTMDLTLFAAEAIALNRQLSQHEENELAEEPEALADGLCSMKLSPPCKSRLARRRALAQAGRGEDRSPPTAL
Procedure: as §1

TT human MTC cells = assay: soft agar colony formation assay; assay type: cell-based; settings: colonies at three weeks
Source text: Imaged with ×40. […] Error bars, standard errors in triplicate.

765>dRet^M955T flies = assay: wing venation assay in adult flies; settings: for ectopic wing venation in 765>dRet^M955T flies: doses tested
Source text: More than 15 adult wings were scored for abnormal wing venation.

ptc>dRet^M955T flies [4] = assay: kinome genetic modifier screening of ptc>dRet^M955T flies in the presence of drug; assay type: in vivo, Drosophila
EPH = assay: kinase percent inhibition measurement, EPH; assay type: biochemical, human; settings: cell-free kinase inhibition assay, compounds screened at 1 μM
Procedure: (§2) The sorafelogs were assayed against a panel of purified human kinases (ThermoFisher) to measure percentage inhibition values and derive kinome profiles (FIG. 61). All compounds were screened at 1 μM, using two biological replicates to determine percent inhibition values. Detailed procedures for kinase reactions and assay formats are described at www.thermofisher.com/kinaseprofiling.

FRK = biological target: T4, FRK (Homo sapiens, UniProt P42685); assay: kinase percent inhibition measurement, FRK; assay type: biochemical; settings: cell-free kinase inhibition assay, compounds screened at 1 μM
T4 construct: purchased ThermoFisher
T4 sequence (P42685 whole entry): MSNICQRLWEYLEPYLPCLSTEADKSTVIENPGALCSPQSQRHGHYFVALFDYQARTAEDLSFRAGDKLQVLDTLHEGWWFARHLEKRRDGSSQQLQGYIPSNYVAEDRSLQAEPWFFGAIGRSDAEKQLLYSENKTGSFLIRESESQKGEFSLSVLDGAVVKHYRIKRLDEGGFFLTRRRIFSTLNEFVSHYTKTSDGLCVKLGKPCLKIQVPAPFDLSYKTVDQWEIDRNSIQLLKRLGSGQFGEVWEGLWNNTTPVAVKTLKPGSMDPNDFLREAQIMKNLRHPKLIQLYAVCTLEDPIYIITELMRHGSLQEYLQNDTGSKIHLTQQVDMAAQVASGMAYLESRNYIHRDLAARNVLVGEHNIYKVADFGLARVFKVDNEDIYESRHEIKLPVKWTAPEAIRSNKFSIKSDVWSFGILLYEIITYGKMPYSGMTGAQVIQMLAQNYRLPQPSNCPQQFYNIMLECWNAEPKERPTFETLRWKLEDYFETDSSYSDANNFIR
Procedure: as §2

RET(M918T) = biological target: T5, RET(M918T) (Homo sapiens, UniProt P07949, M918T); assay: Kd measurement (KINOMEscan bead based competition assay), RET(M918T); assay type: binding; settings: in vitro
T5 construct: phage display fusion (kinase expressed on phage); purchased DiscoverX (KINOMEscan service); host or cells: phage
T5 sequence (P07949 29-1114 M918T): as the sequence (P07949 29-1114) above, with M890T counted along it
Procedure: as §1

TT cell tumors = assay: TT cell xenograft assay in nude mice; assay type: in vivo, mouse; settings: 10 mg/kg/day p.o.
Procedure: FIGS. 66C-E illustrate the effectiveness of the oral administration of APS6-45 to mice with xenografts. […] Dosing (10 mg/kg/day each) was started on day 0 after establishing TT cell tumors (˜120 mm^3) subcutaneously in nude mice. Error bars, standard errors (n=10). Cabo, cabozantinib; soraf, sorafenib. […] FIG. 66D and FIG. 67 illustrate Waterfall plots showing percent changes in tumor volume on day 30 relative to pretreatment baselines. Each bar represents a single animal. […] Asterisk, complete response. Two mice were lost during the course of the experiment due to unknown causes. Administration of APS6-45 had no effect on mouse body weight as illustrated in FIG. 66E (same legend as FIG. 66C).
Xenograft assays were also performed by Washington Biotechnology. 40 female nude mice (5-6 weeks) were implanted subcutaneously with TT cells. […]

toleration assay in mice = assay type: in vivo, mouse; settings: female athymic nude mice, oral doses escalated from 0.1 up to 160 mg/kg/day
Procedure: Toleration assays for APS6-45 were performed by Washington Biotechnology (Baltimore, Md.). Briefly, five female athymic nude mice (5-6 weeks) were administered with increasing oral doses of APS6-45 starting at 0.1 mg/kg/day and observed for 2 days for signs of clinical distress such as weight loss, discharges, and morbidity.

[5] = pharmacokinetics assay in mice (clinical signs); assay type: in vivo, mouse; settings: male ICR mice, 20 mg/kg orally
Procedure: Phamacokinetics assays for APS6-45 were performed by Medicilon Preclinical Research (Shanghai, China). 20 mg/kg of APS6-45 was dosed orally to male ICR mice (5-6 weeks of age), and its plasma concentrations were determined at 0.25, 0.5, 1, 2, 4, 8, 10, and 24 hours post dosing.

For CNC(=O)c1cc(Oc2ccc(NC(=O)Nc3ccc(Cl)c(C(F)(F)F)c3)c(F)c2)ccn1 [regorafenib, 4-(4-(3-(4-Chloro-3-(trifluoromethyl)phenyl)ureido)-3-fluorophenoxy)-N-methylpicolinamide, reference compound], the “rescue of ptc>dRet^M955T viability, in words” value (shortened to “rescue … in words”) (ptc>dRet^M955T flies [1]) was “weak efficacy”.
For CNC(=O)c1cc(Oc2ccc(NC(=O)c3ccc(Cl)c(C(F)(F)F)c3)cc2)ccn1 [LS1-37, 4-(4-(4-Chloro-3-(trifluoromethyl)benzamido)phenoxy)-N-methylpicolinamide], the whole body toxicity (non-oncogenic w^- flies) was “toxic” and the “ptc>dRet^M955T-mediated EMT and cell migration/invasion” value [2] was “worsened cell migration”.
In the case of CNC(=O)c1cc(Oc2ccc(NC(=O)Nc3cc(C(F)F)ccc3F)cc2)ccn1 [APS4-54, 4-(4-(3-(5-(Difluoromethyl)-2-fluorophenyl)ureido)phenoxy)-N-methylpicolinamide], the “rescue … in words” value (ptc>dRet^M955T flies [1]) was “poor whole animal activity relative to LS1-15; also recorded: reduced rescue”.
For CC(C)n1nc(-c2ccc(NC(=O)Nc3cc(C(F)(F)F)ccc3F)cc2)c2c(N)ncnc21 [AD80, reference compound], the rough eye phenotype (ptc>dRet^M955T flies [3]) was “did not”.
In the case of CNC(=O)c1cc(Oc2ccc(NC(=O)Nc3cc(C(F)(F)C(F)(F)F)ccc3F)cc2)ccn1 [APS5-16-2, 4-(4-(3-(2-Fluoro-5-(perfluoroethyl)phenyl)ureido)phenoxy)-N-methylpicolinamide], the “rescue … in words” value (ptc>dRet^M955T flies [1]) was “significant rescue; also recorded: strongly increased overall ptc>dRet^M955T survival beyond LS1-15”, the “BRAF binding, in words” value (human BRAF) was “significantly reduced BRAF binding” and the “RET binding / inhibition, in words” value (human RET) was “retaining RET inhibition”. For the same molecule, the “MKNK1 binding, in words” value (MKNK1) was “significantly reduced MKNK1 binding”, the MTC colony formation (TT human MTC cells) was “Suppression of MTC colony formation” and the “ectopic wing venation in 765>dRet^M955T flies” value (765>dRet^M955T flies) was “exclusively suppressed wing venation; also recorded: failed to promote ectopic wing venation”. For the same molecule, the “effect of reduced Lk6 on suppression of cell migration by compound” value (“effect of reduced Lk6” for short) [2] was “not affected”.
For CNC(=O)c1cc(Oc2ccc(NC(=O)Nc3cc(C(F)(F)F)ccc3F)cc2)ccn1 [LS1-15, 4-(4-(3-(2-Fluoro-5-(trifluoromethyl)phenyl)ureido)phenoxy)-N-methylpicolinamide], the “rescue … in words” value (ptc>dRet^M955T flies [1]) was “rescued viability significantly better than sorafenib; also recorded: most effective in rescuing lethality”, the “viability of drug-treated ptc>dRet^M955T flies (kinase-proficient control)” value (ptc>dRet^M955T flies [4]; 23° C.) was roughly 50% and the “survival to adulthood of ptc>dRet^M955T, Lk6^−/+ flies” value (ptc>dRet^M955T flies [4]; one active allele of Lk6 removed, in the presence of drug) was 0%. The “viability of ptc>dRet^M955T, phl^−/+ flies” value (ptc>dRet^M955T flies [4]; phl (Raf ortholog) heterozygous, in the presence of drug) was 96%, the “BRAF binding, in words” value (human BRAF) was “significant binding” and the “inhibition of EPH kinase activity” value (EPH) was “inhibit”. The “inhibition of FRK kinase activity” value (FRK) was “inhibit”, the “wing venation at higher concentrations” value (765>dRet^M955T flies; higher concentrations / high doses that rescue ptc>dRet^M955T viability) was “suppressed venation; also recorded: did not promote ectopic wing venation” and the “wing venation at low dose” value (765>dRet^M955T flies; low dose (10 μM)) was “enhanced venation; also recorded: stimulated significant excess wing vein material”. For the same molecule, the “effect of reduced Lk6” value [2] was “reversed suppression” and the “ptc>dRet^M955T-mediated EMT and cell migration/invasion” value [2] was “strongly suppressed”.
With CNC(=O)c1cc(Oc2ccc(NC(=O)Nc3cccc(C(F)(F)F)c3)cc2)ccn1 [LS1-11-2, N-Methyl-4-(4-(3-(3-(trifluoromethyl)phenyl)ureido)phenoxy)picolinamide] the “rescue … in words” value (ptc>dRet^M955T flies [1]) was “reduced survival”.
For CNC(=O)c1cc(Oc2ccc(NC(=O)Nc3cc(C(F)(C(F)(F)F)C(F)(F)F)ccc3F)cc2)ccn1 [APS6-45, 4-(4-(3-(2-Fluoro-5-(perfluoropropan-2-yl)phenyl)ureido)phenoxy)-N-methylpicolinamide], the “rescue … in words” value (ptc>dRet^M955T flies [1]) was “strongest efficacy; also recorded: strongly increased overall ptc>dRet^M955T survival beyond LS1-15”, the “rescue of ptc>dRet^M955T flies (rescued adults / total pupae, viability)” value (ptc>dRet^M955T flies [1]; optimal doses) was 84% and the “BRAF binding, in words” value (human BRAF) was “significantly reduced BRAF binding”. The “RET binding / inhibition, in words” value (human RET) was “retaining RET inhibition; also recorded: lower activity; also recorded: weakest RET binding”, the “activity against oncogenic RET, in words” value (RET(M918T)) was “lower activity” and the “MKNK1 binding, in words” value (MKNK1) was “only a small decrease”. For the same molecule, the MTC colony formation (TT human MTC cells) was “Suppression of MTC colony formation”, the “TT cell tumor growth in nude mice” value (TT cell tumors) was “Suppression of TT cell growth in vivo” and the mouse body weight (TT cell tumors; xenograft study) was “no effect”. The “signs of clinical distress (weight loss, discharges, morbidity)” value (toleration assay in mice) was “no such signs were observed”, the treatment-related clinical signs [5] was “No treatment-related clinical signs were observed” and the rough eye phenotype (ptc>dRet^M955T flies [3]) was “strongly suppressed; also recorded: strongly rescued the rough eye phenotype”. For the same molecule, the “ectopic wing venation in 765>dRet^M955T flies” value (765>dRet^M955T flies) was “exclusively suppressed wing venation; also recorded: failed to promote ectopic wing venation” and the “effect of reduced Lk6” value [2] was “not affected”.
For CNC(=O)c1cc(Oc2ccc(NC(=O)Nc3cc(C)ccc3F)cc2)ccn1 [APS4-35-1, 4-(4-(3-(2-Fluoro-5-methylphenyl)ureido)phenoxy)-N-methylpicolinamide], the “rescue … in words” value (ptc>dRet^M955T flies [1]) was “poor whole animal activity relative to LS1-15; also recorded: reduced rescue”.
In the case of CNC(=O)c1cc(Oc2ccc(NC(=O)Nc3cc(C(F)(F)F)ccc3F)c(F)c2)ccn1 [APS3-69-1, 4-(3-Fluoro-4-(3-(2-fluoro-5-(trifluoromethyl)phenyl)ureido)phenoxy)-N-methylpicolinamide], the “ptc>dRet^M955T-mediated EMT and cell migration/invasion” value [2] was “strongly suppressed”.
